# Laboratory results published in patent US7855177B1, “Methods and kits for preventing hypoglycemia” (Cebix Inc., priority 2009, dated 2010).
# System: type 1 diabetes patients with peripheral neuropathy
# Experiment: Phase II trial: adverse events
# Settings: for Total treatment emergent AEs of any severity, number / Total treatment emergent AEs possibly related to study drug, number: all SOCs; for Total Adverse Events, Moderate / Total Adverse Events, Severe: ITT data set, number of treatment emergent AEs
# [1] = High-dose C-peptide, SOC Blood and lymphatic system disorder
# [2] = High-dose C-peptide, SOC Eye disorder
# [3] = High-dose C-peptide, SOC Gastro-intestinal Disorders
# [4] = High-dose C-peptide, SOC General disorders and administration site conditions
# [5] = High-dose C-peptide, SOC Infections and infestations
# [6] = High-dose C-peptide, SOC Injury poisoning, procedural complications
# [7] = High-dose C-peptide, SOC Investigations
# [8] = High-dose C-peptide, SOC Metabolism and nutritional disorders
# [9] = High-dose C-peptide, SOC Musculoskeletal and connective tissue disorder
# [10] = High-dose C-peptide, SOC Nervous system disorders
# [11] = High-dose C-peptide, SOC Reproductive system and breast disorders
# [12] = High-dose C-peptide, SOC Respiratory, thoracic, and mediastinal disorders
# [13] = High-dose C-peptide, SOC Skin and subcutaneous tissue disorders
# [14] = High-dose C-peptide, SOC Surgical and Medical
# [15] = High-dose C-peptide, SOC Vascular disorders
# [16] = Low-dose C-peptide, SOC Cardiac disorder
# [17] = Low-dose C-peptide, SOC Eye disorder
# [18] = Low-dose C-peptide, SOC Gastro-intestinal Disorders
# [19] = Low-dose C-peptide, SOC Immune system disorders
# [20] = Low-dose C-peptide, SOC Infections and infestations
# [21] = Low-dose C-peptide, SOC Injury poisoning, procedural complications
# [22] = Low-dose C-peptide, SOC Investigations
# [23] = Low-dose C-peptide, SOC Metabolism and nutritional disorders
# [24] = Low-dose C-peptide, SOC Musculoskeletal and connective tissue disorder
# [25] = Low-dose C-peptide, SOC Nervous system disorders
# [26] = Low-dose C-peptide, SOC Psychiatric disorders
# [27] = Low-dose C-peptide, SOC Skin and subcutaneous tissue disorders
# [28] = Low-dose C-peptide, SOC Surgical and Medical
# Description: The safety measurements comprised collection of AEs, spontaneously reported by the patient or recorded by the investigator at each clinical visit. Review of laboratory investigations, vital signs, and physical examinations was performed at the S/B visit, visit 2, and at end of study (visit 4). ECG was performed at the S/B visit and at visit 4.
# An AE was classified as “unexpected event” (i.e., if not specifically listed in the Investigator's Brochure) in terms of nature, severity, or frequency. All AEs, including intercurrent illnesses and increased severity or frequency of sign/symptoms of a concomitant disease was reported and documented as described below. AEs were documented on an “Adverse Event/Serious Adverse Event” page of the CRF and in the patient's medical records. Any AE occurring at any time after the end of the study, considered to be caused by the study medication—and therefore a possible adverse drug reaction—was reported to the sponsor.
# The period of observation for AEs extended from the time the patient started on trial medication until end of the study. AEs were divided into the categories “serious” and “non-serious”. This determined the procedure used to report/document the AE.
# Regardless of the classification of an AE as serious or non-serious (see above), its severity was assessed as mild, moderate, or severe, according to medical criteria alone:
# Descriptive statistics were used for safety variables. For lab parameters summary statistics were presented as change from baseline and between doses. The changes from baseline were calculated and compared with normal ranges. The safety analysis set included all patients who obtained at least one dose of the investigational drug. AEs were coded according to the MedDRA dictionary. The frequencies of AEs are tabulated by body system and included/preferred term.
smiles,measurement,setting,value
CC(C)C[C@H](NC(=O)[C@H](C)NC(=O)[C@H](CC(C)C)NC(=O)[C@@H]1CCCN1C(=O)[C@H](CCC(N)=O)NC(=O)[C@H](CC(C)C)NC(=O)[C@H](CO)NC(=O)CNC(=O)[C@H](C)NC(=O)CNC(=O)[C@@H]1CCCN1C(=O)CNC(=O)CNC(=O)CNC(=O)[C@H](CC(C)C)NC(=O)[C@H](CCC(=O)O)NC(=O)[C@@H](NC(=O)[C@H](CCC(N)=O)NC(=O)CNC(=O)[C@@H](NC(=O)[C@H](CCC(N)=O)NC(=O)[C@H](CC(C)C)NC(=O)[C@H](CC(=O)O)NC(=O)[C@H](CCC(=O)O)NC(=O)[C@H](C)NC(=O)[C@@H](N)CCC(=O)O)C(C)C)C(C)C)C(=O)N[C@@H](CCC(=O)O)C(=O)NCC(=O)N[C@@H](CO)C(=O)N[C@@H](CC(C)C)C(=O)N[C@@H](CCC(N)=O)C(=O)O [C-peptide],tolerability,"500-1,500 nmoL/24 h",well tolerated
same,"Anemia, number of AEs",[1],1
same,"Hemorrhage, number of AEs",[1],1
same,"Macular edema, number of AEs",[2],1
same,"Vitreous hemorrhage, number of AEs",[2],1
same,"Abdominal pain, number of AEs",[3],3
same,"Aptyalism, number of AEs",[3],1
same,"Diarrhea, number of AEs",[3],1
same,"Gastritis, number of AEs",[3],1
same,"Nausea, number of AEs",[3],4
same,"Tooth ache, number of AEs",[3],3
same,"Chest pain, number of AEs",[4],2
same,"Fatigue, number of AEs",[4],2
same,"Feeling abnormal, number of AEs",[4],3
same,"Injection site burning, number of AEs",[4],1 (1)
same,"Injection site burning, number of AEs possibly related to study drug",[4],1 (1)
same,"Gastroenteritis, number of AEs",[5],7
same,"Otitis, number of AEs",[5],2
same,"Pharyngitis, number of AEs",[5],2
same,"Sepsis, number of AEs",[5],1
same,"Sinusitis, number of AEs",[5],2
same,"Skin infection, number of AEs",[5],1
same,"Tonsilitis, number of AEs",[5],2
same,"Tooth infection, number of AEs",[5],2
same,"Upper respiratory tract infection, number of AEs",[5],1
same,"Urinary tract infection, number of AEs",[5],1
same,"Blister, number of AEs",[6],2
same,"Dizziness, number of AEs",[6],1
same,"Eye injury, number of AEs",[6],1
same,"Food poisoning, number of AEs",[6],1
same,"Joint sprain ankle, number of AEs",[6],1
same,"Knee injury, number of AEs",[6],1
same,"Rib fracture/injury, number of AEs",[6],2
same,"Scar, number of AEs",[6],1
same,"Tooth injury, number of AEs",[6],1
same,"Cardiac murmur, number of AEs",[7],1
same,"Hematuria, number of AEs",[7],1
same,"Hepatic enzyme increase, number of AEs",[7],2
same,"Hypercalcemia, number of AEs",[7],1
same,"Leucopenia, number of AEs",[7],1
same,"Lymph node enlargement, number of AEs",[7],1
same,"Hyperglycemia, number of AEs",[8],1
same,"Hypoglycemia, number of AEs",[8],5
same,"Hypoglycemia, number of AEs possibly related to study drug",[8],1
same,"Hypoglycemic coma, number of AEs",[8],2
same,"Vitamin B12 deficiency, number of AEs",[8],1
same,"Arthralgia, number of AEs",[9],3
same,"Arthritis, number of AEs",[9],1
same,"Arthropathy, number of AEs",[9],1
same,"Back pain, number of AEs",[9],2
same,"Epicondylitis, number of AEs",[9],1
same,"Muscle spasm, number of AEs",[9],1
same,"Muscular atrophy, number of AEs",[9],1
same,"Myalgia, number of AEs",[9],1
same,"Pain in extremity, number of AEs",[9],4
same,"Pain in shoulder, number of AEs",[9],1
same,"Tendinitis, number of AEs",[9],1
same,"Tendosynovitis, number of AEs",[9],1
same,"Torticollis, number of AEs",[9],1
same,"Burning sensation, number of AEs",[10],1
same,"Headache, number of AEs",[10],17
same,"Hyperaesthesia, number of AEs",[10],1 (1)
same,"Hyperaesthesia, number of AEs possibly related to study drug",[10],1 (1)
same,"Migraine, number of AEs",[10],1
same,"Paraesthesia, number of AEs",[10],2 (2)
same,"Paraesthesia, number of AEs possibly related to study drug",[10],2 (2)
same,"Restless legs syndrome, number of AEs",[10],1
same,"Sciatica, number of AEs",[10],1
same,"Sensory loss, number of AEs",[10],1
same,"Vertigo, number of AEs",[10],1
same,"Pregnancy, number of AEs","High-dose C-peptide, SOC Pregnancy, puerperium and perinatal conditions",2
same,"Menopausal disorder, number of AEs",[11],1
same,"Menstration irregular, number of AEs",[11],1
same,"Cough, number of AEs",[12],1
same,"Epistaxis, number of AEs",[12],1
same,"Skin induration, number of AEs",[13],1
same,"Skin infection, number of AEs",[13],2
same,"Sweating increased, number of AEs",[13],1
same,"Limb operation, number of AEs",[14],1
same,"Tooth extraction, number of AEs",[14],1
same,"Arterial disorder, number of AEs",[15],1
same,"Hypertension, number of AEs",[15],1
same,"Hypotension, number of AEs",[15],1
same,"Total treatment emergent AEs of any severity, number",High-dose C-peptide,156
same,"Total treatment emergent AEs possibly related to study drug, number",High-dose C-peptide,5
same,"Anemia, number of AEs","Low-dose C-peptide, SOC Blood and lymphatic system disorder",1
same,"Cardiac arrhythmia, number of AEs",[16],1
same,"ST elevation (ECG), number of AEs",[16],1
same,"Tachycardia (stress, number of AEs)",[16],1
same,"Dacryocanaliculitis, number of AEs",[17],1
same,"Vision decreased, number of AEs",[17],1
same,"Celiac disease, number of AEs",[18],1
same,"Diarrhea, number of AEs",[18],2
same,"Flatulence, number of AEs",[18],1
same,"Nausea, number of AEs",[18],1
same,"Reflux gastritis, number of AEs",[18],2
same,"Tooth ache, number of AEs",[18],2
same,"Pyrexia, number of AEs","Low-dose C-peptide, SOC General disorders and administration site conditions",3
same,"Allergic urticaria, number of AEs",[19],1
same,"Dermatitis allergic, number of AEs",[19],1
same,"Rheumarthritis, number of AEs",[19],1
same,"Season allergy, number of AEs",[19],1
same,"Borrelia infection, number of AEs",[20],1
same,"Bronchitis, number of AEs",[20],1
same,"Candidiasis, number of AEs",[20],2
same,"Gastroenteritis, number of AEs",[20],2
same,"Herpes simplex, number of AEs",[20],1
same,"Herpeszoster, number of AEs",[20],1
same,"Influenza, number of AEs",[20],1
same,"Nasopharyngitis, number of AEs",[20],31
same,"Otitis, number of AEs",[20],1
same,"Pharyngitis, number of AEs",[20],1
same,"Sinusitis, number of AEs",[20],4
same,"Skin infection, number of AEs",[20],5
same,"Tonsilitis, number of AEs",[20],1
same,"Upper respiratory tract infection, number of AEs",[20],3
same,"Urinary tract infection, number of AEs",[20],3
same,"Joint sprain ankle, number of AEs",[21],1
same,"Rib fracture/injury, number of AEs",[21],1
same,"Skin injury, number of AEs",[21],2
same,"Elevated serum, number of AEs",[22],1
same,"Hepatic enzyme increase, number of AEs",[22],2
same,"Hepatic enzyme increase, number of AEs possibly related to study drug",[22],1
same,"Hyperkalaemia, number of AEs",[22],1
same,"Weight increased, number of AEs",[22],1
same,"Hyperglycemia, number of AEs",[23],1 (1)
same,"Hyperglycemia, number of AEs possibly related to study drug",[23],1 (1)
same,"Hyperlipidemia, number of AEs",[23],1
same,"Hypoglycemia, number of AEs",[23],2
same,"Hypoglycemia, number of AEs possibly related to study drug",[23],1
same,"Hypoglycemic coma, number of AEs",[23],2
same,"Insulin sensitivity, number of AEs",[23],1 (1)
same,"Insulin sensitivity, number of AEs possibly related to study drug",[23],1 (1)
same,"Arthralgia, number of AEs",[24],3
same,"Arthritis, number of AEs",[24],1
same,"Arthropathy, number of AEs",[24],2
same,"Epicondylitis, number of AEs",[24],1
same,"Exostosis, number of AEs",[24],2
same,"Muscle cramp, number of AEs",[24],1
same,"Musculoskeletal chest, number of AEs",[24],1
same,"Myalgia, number of AEs",[24],3
same,"Pain in extremity, number of AEs",[24],3
same,"Pain in extremity, number of AEs possibly related to study drug",[24],1
same,"Pain in neck, number of AEs",[24],1
same,"Synovial disorder, number of AEs",[24],1
same,"Tendinous contracture, number of AEs",[24],1
same,"Carpal tunnel syndrome, number of AEs",[25],1
same,"Dizziness, number of AEs",[25],2
same,"Headache, number of AEs",[25],35
same,"Hyperthermeasthesia, number of AEs",[25],2 (2)
same,"Hyperthermeasthesia, number of AEs possibly related to study drug",[25],2 (2)
same,"Hypoaesthesia, number of AEs",[25],2
same,"Multiple sclerosis, number of AEs",[25],1
same,"Paraesthesia, number of AEs",[25],2
same,"Paraesthesia, number of AEs possibly related to study drug",[25],1
same,"Depression, number of AEs",[26],1
same,"Panic disorder, number of AEs",[26],1
same,"Stress disorder, number of AEs",[26],1
same,"Asthma, number of AEs","Low-dose C-peptide, SOC Respiratory, thoracic, and mediastinal disorders",1
same,"Dry skin, number of AEs",[27],1
same,"Fibroma, number of AEs",[27],1
same,"Skin induration, number of AEs",[27],2
same,"Eye operation, number of AEs",[28],1
same,"Limb operation, number of AEs",[28],1
same,"Hypertension, number of AEs","Low-dose C-peptide, SOC Vascular disorders",1
same,"Total treatment emergent AEs of any severity, number",Low-dose C-peptide,173
same,"Total treatment emergent AEs possibly related to study drug, number",Low-dose C-peptide,8
same,local reactions,"S.C. injection, 500-1,500 nmoL/24 h",No local reactions
same,SAEs,"high-dose C-peptide (1,500 nmoL/24 h)",Two
same,AEs possibly/probably related to the study drug,high-dose C-peptide group,5
same,patients without reported AEs,high-dose C-peptide group,6 patients
same,patients with AEs,"high-dose C-peptide group, 44 out of 52 patients",85%
same,"Total Adverse Events, Moderate",high-dose C-peptide group,Moderate = 43
same,"Total Adverse Events, Severe",high-dose C-peptide group,Severe = 9
same,relationship of SAEs to the trial medication,"high-dose C-peptide, investigators' assessment",unlikely/not related
same,patients without reported AEs,low-dose C-peptide group,8 patients
same,patients with AEs,"low-dose C-peptide group, 48 out of 56 patients",86%
same,"Total Adverse Events, Moderate",low-dose C-peptide group,Moderate = 51
same,"Total Adverse Events, Severe",low-dose C-peptide group,Severe = 1
